Laboratory results published in publication PMC3958783, “Molybdenum Reduction to Molybdenum Blue in Serratia sp. Strain DRY5 Is Catalyzed by a Novel Molybdenum-Reducing Enzyme” (BioMed Research International, 2014).
Where two headings read alike, the source gives them in different places.

Legend:
[1] = test system: T1, Mo-reducing enzyme; test: initial rates of Mo blue formation, absorbance at […] nm, nonlinear regression; format: biochemical, Serratia sp. DRY5; details: assay 50 mM citrate phosphate pH 5.0, room temperature, read-out: apparent Km
T1 construct: native protein purified from cytoplasmic fraction (Mono Q twice, Zorbax GF-250); monomer, 105 kDa by gel filtration, 100 kDa by SDS-PAGE

[2] = target: T1, Mo-reducing enzyme; test: Mo blue formation assay, […] nm; format: biochemical, Serratia sp. DRY5; details: general reagent, assay with 12-MP and NADH; for IC50: read-out: Concentrations which decrease enzyme activity by 50%

NC(=O)C1=CN([C@@H]2O[C@H](COP(=O)(O)OP(=O)(O)OC[C@H]3O[C@@H](n4cnc5c(N)ncnc54)[C@H](O)[C@@H]3O)[C@@H](O)[C@H]2O)C=CC1 [NADH]
Km ([1]; 15 mM 12-MP, electron donor): 790 µM

12-MP
Km ([1]; 5 mM NADH, electron acceptor): 3870 µM

CCCCCCCCCCCCOS(=O)(=O)O [SDS]
Concentrations which decrease enzyme activity by 50% ([2]; denaturing detergent): 0.1%

OCCS [2-Mercaptoethanol]
IC50 ([2]; thiol): 5 mM

OC(CS)C(O)CS (stereo not drawn) [DTT]
IC50 ([2]; thiol): 10 mM

O=C(O)CN(CCN(CC(=O)O)CC(=O)O)CC(=O)O [EDTA]
IC50 ([2]; metal chelator): 0.1 mM
